Test results reported in paper PMC10604444, “Extra-Synaptic GABAA Receptor Potentiation and Neurosteroid-Induced Learning Deficits Are Inhibited by GR3027, a GABAA Modulating Steroid Antagonist” (Biomolecules, 2023).
Where two headings read alike, the source gives them in different places.

Legend:
male Wistar rats = experiment: AP-induced loss of righting reflex (LoR); format: in vivo, rat
From the text: Nanomolar concentrations of AP injected intravenously dramatically potentiate the GABA response at the GABAA receptor [1, 20]. […] Under normal circumstances, the righting reflex immediately corrects the orientation of the body when it is outside of its normal upright position, such as that of a rat that is placed on its side. When the rat is awake, it immediately turns around to be standing on its paws when dropped from a low distance above a surface. This ability can be lost with the injection of AP. Twelve male Wistar rats, with a weight of 267–307 g at the test occasion, were included in the study (Taconics, Denmark). The rats were housed at three animals per cage, with a normal day/night light cycle and ad libitum access to food and water (except during the short experiment, approximately 10 min). The week before the study, the animals were handled daily, to avoid stress during the experimental session. The handling included activities used during the test, i.e., holding, tail warming in water, and wrapping in op-blankets. AP (Umecrine AB) and GR3027 (Umecrine Cognition AB) were dissolved at a concentration of 2 mg/mL in 10% 2-hydroxypropyl-β-cyclodextrin (Sigma), respectively, by sonication. To measure the antagonism of AP-induced LoR, GR3027 was mixed with the AP solution at different ratios of AP to GR3027 1: 2.5–1:7.5. […]

[1] = molecular target: T1, human α5β3γ2L GABAA receptors expressed in HEK-293 cells (Homo sapiens, UniProt P28472+P31644); experiment: Whole-cell patch clamp of GABA/THDOC-evoked currents, extra-synaptic protocol (Dynaflow); format: cell-based; conditions: for Current with GR3027 alone: baseline holding current +2.15 ± 1.4 pA, n = 9, not significant
T1 construct: The coding regions of the human GABAA receptor subunits were then amplified by PCR; expressed in transfected cells; host or cells: HEK-293 (permanently transfected, pcDNA3.1 vectors, CMV promoter)
T1 sequence (P31644 32-462): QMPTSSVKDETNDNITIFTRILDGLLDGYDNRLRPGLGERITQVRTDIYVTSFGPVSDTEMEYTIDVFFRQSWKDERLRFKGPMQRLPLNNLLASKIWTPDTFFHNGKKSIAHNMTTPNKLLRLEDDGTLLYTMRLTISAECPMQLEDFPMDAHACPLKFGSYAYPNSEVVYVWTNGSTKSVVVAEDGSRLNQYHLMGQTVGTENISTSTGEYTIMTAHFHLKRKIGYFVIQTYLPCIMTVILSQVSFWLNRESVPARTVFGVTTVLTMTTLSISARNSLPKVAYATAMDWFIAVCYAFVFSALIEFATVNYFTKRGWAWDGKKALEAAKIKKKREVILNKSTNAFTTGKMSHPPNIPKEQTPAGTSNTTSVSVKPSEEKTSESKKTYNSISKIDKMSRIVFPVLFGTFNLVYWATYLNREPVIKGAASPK
T1 sequence (P28472 26-473 isoform P28472-2 limits assumed): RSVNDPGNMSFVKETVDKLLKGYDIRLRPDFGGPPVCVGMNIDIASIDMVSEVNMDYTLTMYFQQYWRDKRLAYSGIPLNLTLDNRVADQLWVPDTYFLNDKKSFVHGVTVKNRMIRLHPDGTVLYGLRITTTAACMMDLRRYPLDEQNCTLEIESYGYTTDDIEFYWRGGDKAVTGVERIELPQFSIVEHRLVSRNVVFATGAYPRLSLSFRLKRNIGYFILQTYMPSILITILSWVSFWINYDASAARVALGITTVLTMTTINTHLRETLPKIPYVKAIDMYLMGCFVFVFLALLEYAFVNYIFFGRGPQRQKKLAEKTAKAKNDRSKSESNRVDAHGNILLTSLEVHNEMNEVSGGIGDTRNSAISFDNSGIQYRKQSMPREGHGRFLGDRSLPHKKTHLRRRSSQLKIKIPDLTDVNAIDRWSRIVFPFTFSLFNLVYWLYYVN
T1 sequence (P18507 40-475 partner): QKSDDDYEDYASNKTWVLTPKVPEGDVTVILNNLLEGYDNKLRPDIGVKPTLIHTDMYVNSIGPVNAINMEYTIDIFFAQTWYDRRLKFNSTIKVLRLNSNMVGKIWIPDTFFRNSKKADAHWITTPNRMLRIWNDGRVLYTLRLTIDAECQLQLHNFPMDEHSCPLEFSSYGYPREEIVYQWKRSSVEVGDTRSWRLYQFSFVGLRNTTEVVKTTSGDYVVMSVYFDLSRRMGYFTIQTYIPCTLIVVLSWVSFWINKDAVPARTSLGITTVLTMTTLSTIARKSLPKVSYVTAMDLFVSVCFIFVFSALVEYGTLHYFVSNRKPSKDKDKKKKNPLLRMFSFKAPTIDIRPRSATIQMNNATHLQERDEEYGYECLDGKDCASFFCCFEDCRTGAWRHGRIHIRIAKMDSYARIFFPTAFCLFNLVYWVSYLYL
From the text: Wild-type HEK-293 cells (passage 4, originating from Pasteur Institute, Paris, France) were permanently transfected with vectors including the human CMV promoter for the constitutive expression of the human α5, β3, and γ2L GABAA receptor subunits (α5β3γ2L) or the human α1, β2, and γ2L GABAA receptor subunits (α1β2γ2L). The production of the plasmids used in the sub-cloning of the different subunits is published in Rahman et al..
The electrophysiological recordings from HEK-293 cells were performed with the whole-cell voltage clamp technique, at room temperature (21–23 °C). After compensation for liquid junction potential, a steady holding potential of −17 mV was used in all experiments. Patch pipettes were pulled from borosilicate glass (Bergman Labora AB, Danderyd, Sweden) and polished to a resistance of 2–5 MΩ when filled with intracellular solution and immersed in a bath (extracellular) solution (for solutions, see below). The pipette tips were filled by immersion in standard intracellular solution and subsequent back-filling with intracellular solution. The recordings were made using an Axopatch 200B amplifier and a Digidata 1322A (Axon Instruments, Foster City, CA, USA) controlled via a Pentium processor-based personal computer. Data were acquired using the pCLAMP software sampled at 10 kHz, filtered at 2–10 kHz, and analyzed with Clampfit (versions 9.0, both from Axon Instruments, Foster City, CA, USA). A series resistance between the pipette and cell membrane not higher than 20 MΩ was accepted. No series resistance compensation was used. The stability of series resistance was monitored repeatedly from the time course of capacitative transients during the experiments. The measured liquid junction potential between extracellular and intracellular solutions was subtracted from all data presented, as previously described. All experiments were performed at room temperature (21–23 °C).
In all electrophysiological experiments, tetrahydro-deoxycorticosterone (THDOC) was used as a positive GABAA receptor steroid modulator (PAM) to mimic the effect of AP on central GABAA channels. […] THDOC (Sigma Chemical Co., St. Louis, MO, USA) and GR3027 (3α-ethynyl, 3β-hydroxyl, 5α-androstan-17-oxime, golexanolone, Umecrine Cognition AB, Stockholm, Sweden) were dissolved in dimethyl sulfoxide (DMSO) using ultrasound, for the preparation of solutions containing a final DMSO concentration of 0.1%. GR3027 was discovered within a series of molecules developed and patented by T. Bäckström and G. Ragagnin, (patent WO 2008/063128). All solutions were complemented with DMSO to achieve the same final concentration as in the steroid-containing test solution. GABA (Sigma Chemical Co., St. Louis, MO, USA) was first prepared as a stock solution (dissolved in EC with ultrasonic treatment) to the desired concentrations, with the corresponding final concentrations of test solutions (30 µM and 0.3 µM; see protocols below). GABA was added to the experimental solution without a change in osmolarity.
The experimental protocols were designed to mimic the physiological conditions of the tonic (extra-synaptic) and phasic (synaptic) activation of GABAA receptors observed in central neurons, depending on the subunit compositions, respectively. GABA-evoked currents in HEK-293 cells expressing extra-synaptic (α5β3γ2L) or synaptic (α1β2γ2L) types of GABAA receptors were studied using the conventional whole-cell patch clamp technique. To mimic the physiological GABA exposure, the HEK-293 cells expressing α1β2γ2L GABAA receptors were exposed to short applications (40 ms) of 30 µM GABA, whereas HEK-293 cells expressing α5β3γ2L GABAA receptors were exposed to prolonged applications (6 s) of 0.3 µM GABA, either in the absence or presence of THDOC and/or GR3027.

[2] = test system: patients with hepatic encephalopathy; design: method as in PMID 33894327; conditions: humans; cited from earlier work

## C#C[C@]1(O)CC[C@@]2(C)[C@@H](CC[C@@H]3[C@@H]2CC[C@]2(C)/C(=N/O)CC[C@@H]32)C1 [GR3027, 3α-ethynyl-3β-hydroxyl-5α-androstan-17-oxime]
Male Wistar rats; AP 2 mg/kg i.v., in 10% 2-hydroxypropyl-β-cyclodextrin
  Dosage of GR3027 that antagonizes AP-induced loss of righting reflex: 15 mg/kg
Male Wistar rats; GR3027 15 mg/kg
  Effect on general condition of the rat: did not affect the general condition
[1]
  IC50: 344 nM
[1]; 200 nM THDOC + 0.3 µM GABA
  Imax for decrease of AUC of THDOC-potentiated GABA-mediated response: −35%
  Imax for decrease of peak current amplitude of THDOC-potentiated GABA-mediated response: −37%
[1]; 200 nM THDOC, absence of GABA
  Imax for reduction of THDOC-mediated outward current shift: −33%
[1]; 1 µM GR3027 + 0.3 µM GABA, absence of THDOC, SEM 0.9, p = 0.02, n = 7
  Mean change of peak current amplitude of GABA-mediated response: −7.0%
[1]; 1 µM GR3027 + 0.3 µM GABA, absence of THDOC, SEM 1.5, NS, n = 7
  Mean change of AUC of GABA-mediated response: −3.8%
[1]; 1 µM GR3027, 1 µM THDOC
  Effect on THDOC-induced current response (absence of GABA): significantly reduced
[1]; 1 µM GR3027, absence of THDOC
  Effect on baseline holding current: did not change the baseline holding current
[1]; 1 µM GR3027, no GABA or THDOC
  Current with GR3027 alone: +1.6 ± 1.4 pA
[1]; 3 µM GR3027, no GABA or THDOC
  Current with GR3027 alone: +0.73 ± 0.4 pA
[1]; 3 µM GR3027, 0.1, 0.3, 0.6 and 1 µM THDOC
  Effect on THDOC-induced current response (absence of GABA): significantly reduced
[1]; IC50 for decrease of AUC of THDOC-potentiated GABA-mediated response, 200 nM THDOC + 0.3 µM GABA, n = 4-14
  IC50: 341 nM
[1]; IC50 for decrease of peak current amplitude of THDOC-potentiated GABA-mediated response, 200 nM THDOC + 0.3 µM GABA, n = 4-14
  IC50: 563 nM
[2]
  Effect in patients with hepatic encephalopathy: improves EEG, vigilance, and cognition
